≈ marks a conversion by molar mass, not a printed value. Where two headings read alike, the source gives them in different places.
What was measured:
[1] = system: P. falciparum K1 strain (Thailand resistant to chloroquine); test: semiautomated microdilution assay, [3H]-hypoxanthine incorporation, K1 strain; format: cell-based, Plasmodium falciparum; conditions: for IC50: Plasmodium falciparum, read-out: IC50 (ng/ml) K1
Procedure, shortened: (§1)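 IC50 values come from logit regression of semiautomated microdilution data obtained on intraerythrocytic parasites drawn from asynchronous cultures.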

[2] = system: P. falciparum NF54 strain (sensitive to standard antimalarials); test: semiautomated microdilution assay, [3H]-hypoxanthine incorporation, NF54 strain; format: cell-based, Plasmodium falciparum; conditions: for IC50: Plasmodium falciparum, read-out: IC50 (ng/ml) NF54
Procedure, shortened: as §1

[3] = system: ANKA strain of P. berghei; test: single dose STI in vivo screen in infected mice; parameters: species or system Plasmodium berghei; conditions: for Activity (%) po / Survival (days) po: single 10 mg/kg po in 3% ethanol and 7% Tween 80; for Activity (%) po / Activity (%) sc / Activity (%) SSVpo: mice; for Activity (%) sc / Survival (days) sc: single 10 mg/kg sc in 3% ethanol and 7% Tween 80; for Activity (%) SSVpo: single po dose in standard suspending vehicle (SSV); for Survival (days) po / Survival (days) sc / Survival (days) SSVpo: untreated control 5.6 ± 0.3; for Survival (days) SSVpo: single po dose in SSV
Procedure, shortened: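 Groups of 3-5 Moro SPF or NMRI mice infected with the ANKA strain of P. berghei received a single dose of trioxolane on day one post-infection. The compound was given in 3% ethanol and 7% Tween 80 or in SSV (0.5% w/v CMC, 0.5% v/v benzyl alcohol, 0.4% v/v Tween 80, 0.9% w/v sodium chloride in water). Antimalarial activity was scored as percent reduction in parasitemia on day three and as survival time versus untreated controls. Survival to day 30 counted as cure.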

[4] = percent reduction in parasitemia day 3 post-infection

Compound | IC50 (ng/ml) K1 ([1]; K1 strain, 72 h incubation) | IC50 (ng/ml) NF54 ([2]; NF54 strain, 72 h incubation) | Activity (%) po [3, 4] [%] | Activity (%) sc [3, 4] [%] | Activity (%) SSVpo [3, 4] [%] | Survival (days) po [3] | Survival (days) sc [3] | Survival (days) SSVpo [3] | Activity (%) 3 mg/kg SSV po ([3]; percent reduction in parasitemia day 3 post-infection, single 3 mg/kg po in SSV) [%] | Activity (%) 10 mg/kg SSV po ([3]; percent reduction in parasitemia day 3 post-infection, single 10 mg/kg po in SSV) [%] | Survival (days) 10 mg/kg SSV po ([3]; single 10 mg/kg po in SSV) [days] | IC50 ([1]; K1 strain, 72 h incubation) [ng/mL] | IC50 ([2]; NF54 strain, 72 h incubation) [ng/mL] | IC50 ([1]; K1, 72 h) [ng/mL] | IC50 ([2]; NF54, 72 h) [ng/mL]
CC(C)(C)NC(=O)N[C@H]1CC[C@]2(CC1)OOC1(O2)C2CC3CC(C2)CC1C3 (stereo partly drawn) [OZ222] | 3.9 ng/mL (≈ 10.3 nM) | 6.3 ng/mL (≈ 16.6 nM) | 87 | 99.76 | 75 | 7.7 days | 10.0 days | 7.0 days |  |  |  |  |  |  | 
O=S(=O)(c1ccccc1)N1CCC2(CC1)OOC1(O2)C2CC3CC(C2)CC1C3 (stereo not drawn) [OZ60] | 1.1 ng/mL (≈ 2.71 nM) | 1.2 ng/mL (≈ 2.96 nM) | 71 | 100 |  | 6.0 days | 10.3 days |  |  |  |  |  |  |  | 
c1ccc(CNC[C@H]2CC[C@]3(CC2)OO[C@]2(O3)C3CC4CC(C3)CC2C4)nc1 [OZ292] | 0.19 ng/mL (≈ 0.494 nM) | 0.26 ng/mL (≈ 0.676 nM) |  |  |  |  |  |  | 46 | 74 | 7.0 |  |  |  | 
O=C1c2ccccc2C(=O)N1N=C1CCC2(CC1)OOC1(O2)C2CC3CC(C2)CC1C3 (stereo not drawn) [OZ38] | 0.86 ng/mL (≈ 2.04 nM) | 1.3 ng/mL (≈ 3.08 nM) | 83 | 99.98 | 15 | 6.7 days | 25.3 days | 5.0 days |  |  |  |  |  |  | 
O=S(=O)(C[C@H]1CC[C@]2(CC1)OOC1(O2)C2CC3CC(C2)CC1C3)c1ccccc1 (stereo partly drawn) [OZ210] | 1.4 ng/mL (≈ 3.34 nM) | 1.6 ng/mL (≈ 3.82 nM) | 99.23 | 99.94 | 77 | 9.3 days | 10.3 days | 8.0 days |  |  |  |  |  |  | 
O=C(NO)c1ccc([C@H]2CC[C@]3(CC2)OOC2(O3)C3CC4CC(C3)CC2C4)cc1 (stereo partly drawn) [OZ183] | 0.80 ng/mL (≈ 2 nM) | 2.1 ng/mL (≈ 5.26 nM) | 65 | 81 | 19 | 6.0 days | 8.3 days | 6.0 days |  |  |  |  |  |  | 
O=C(NO)[C@H]1CC[C@]2(CC1)OOC1(O2)C2CC3CC(C2)CC1C3 (stereo partly drawn) [OZ116] | 4.2 ng/mL (≈ 13 nM) | 3.3 ng/mL (≈ 10.2 nM) | 97 | 96 | 96 | 7.7 days | 8.0 days | 8.3 days |  |  |  |  |  |  | 
CCOC(=O)C1CCC2(CC1)OOC1(O2)C2CC3CC(C2)CC1C3 (stereo not drawn) [OZ70] |  |  | 98 | 94 |  | 7.7/NA/7.7 days | 7.7/NA/7.7 days |  |  |  |  | 1.2 (≈ 3.57 nM) | 1.1 (≈ 3.27 nM) |  | 
O=[N+]([O-])c1ccc(C2(c3ccccc3)OOC3(O2)C2CC4CC(C2)CC3C4)cc1 (stereo not drawn) [OZ95] | 2.8 ng/mL (≈ 7.12 nM) | 1.3 ng/mL (≈ 3.3 nM) | 31 | 49 | 0 | 6.0/6.0/6.0 days | 6.0/6.0/6.0 days | 6.0/6.0/6.0 days |  |  |  |  |  |  | 
c1ccc2c(c1)OCCC21OOC2(O1)C1CC3CC(C1)CC2C3 (stereo not drawn) [OZ134] | 0.88 ng/mL (≈ 2.8 nM) | 1.1 ng/mL (≈ 3.5 nM) | 72 | 99.95 | 27 | 6.3 days | 15.3 days | 6.0 days |  |  |  |  |  |  | 
O=C(C[C@H]1CC[C@]2(CC1)OOC1(O2)C2CC3CC(C2)CC1C3)N1CCCCC1 (stereo partly drawn) [OZ218] | 2.0 ng/mL (≈ 5.13 nM) | 3.0 ng/mL (≈ 7.7 nM) | 98 | 99.68 | 99.30 | 10.0 days | 9.0 days | 14.3 days |  |  |  |  |  |  | 
CONC(=O)C[C@H]1CC[C@]2(CC1)OOC1(O2)C2CC3CC(C2)CC1C3 (stereo partly drawn) [OZ213] | 2.3 ng/mL (≈ 6.54 nM) | 2.8 ng/mL (≈ 7.97 nM) | 83 | 85 | 74 | 8.0/8.0/8.0 days | 8.0/8.0/8.0 days | 8.0/8.0/8.0 days |  |  |  |  |  |  | 
O=C(O)CCC(=O)N[C@H]1CC[C@]2(CC1)OOC1(O2)C2CC3CC(C2)CC1C3 (stereo partly drawn) [OZ196] | >10/>10 ng/ml | >10/>10 ng/ml | 10 | 17 | 0 | 6.0 days | 5.7 days | 5.3 days |  |  |  |  |  |  | 
CC1(O)CCC2(CC1)OOC1(O2)C2CC3CC(C2)CC1C3 (stereo not drawn) [OZ90] |  |  | 89 | 99 | 95 | 7.0 days | 8.0 days | 7.0 days |  |  |  |  |  | 0.44 (≈ 1.49 nM) | 0.84 (≈ 2.85 nM)
CC(=O)OC1(c2ccc(F)cc2)CCC2(CC1)OOC1(O2)C2CC3CC(C2)CC1C3 (stereo not drawn) [OZ69] | 1.6 ng/mL (≈ 3.84 nM) | 1.4 ng/mL (≈ 3.36 nM) | 56 | 40 |  | 6.3/NA/6.3 days | 6.3/NA/6.3 days |  |  |  |  |  |  |  | 
O=C(O)c1ccc([C@H]2CC[C@]3(CC2)OOC2(O3)C3CC4CC(C3)CC2C4)cc1 (stereo partly drawn) [OZ165] | 39 ng/mL (≈ 101 nM) | > 10 ng/mL | 18 | 9 | 3 | 6.3 days | 5.7 days | 6.0 days |  |  |  |  |  |  | 
CCOC(=O)c1ccc(OC[C@H]2CC[C@]3(CC2)OOC2(O3)C3CC4CC(C3)CC2C4)cc1 (stereo partly drawn) [OZ166] | 28 ng/mL (≈ 63.3 nM) | > 10 ng/mL | 11 | 4 | 0 | 6.7 days | 5.7 days | 6.3 days |  |  |  |  |  |  | 
CC(=O)Nc1ccc(S(=O)(=O)N2CCC3(CC2)OOC2(O3)C3CC4CC(C3)CC2C4)cc1 (stereo not drawn) [OZ104] | 1.4 ng/mL (≈ 3.03 nM) | 0.50 ng/mL (≈ 1.08 nM) | 56 | 99.98 | 0 | 6.3 days | 12.0 days | 5.7 days |  |  |  |  |  |  | 
C1C2CC3CC1CC(C2)C31OO[C@]2(CC[C@@H](CNC3CC3)CC2)O1 (stereo partly drawn) [OZ253] | 0.56 ng/mL (≈ 1.68 nM) | 0.45 ng/mL (≈ 1.35 nM) | 75 | 99.82 | 59 | 7.0 days | 9.3 days | 6.7 days |  |  |  |  |  |  | 
CC(=O)OC[C@H]1CC[C@]2(CC1)OOC1(O2)C2CC3CC(C2)CC1C3 (stereo partly drawn) [OZ118] | 1.0 ng/mL (≈ 2.97 nM) | 0.24 ng/mL (≈ 0.713 nM) | 99.0 | 99.57 | 98 | 7.0 days | 8.3 days | 8.0 days |  |  |  |  |  |  | 
COC(=O)c1ncn(C[C@H]2CC[C@]3(CC2)OOC2(O3)C3CC4CC(C3)CC2C4)n1 (stereo partly drawn) [OZ234] | 3.0 ng/mL (≈ 7.44 nM) | 3.6 ng/mL (≈ 8.92 nM) | 12 | 0 | 0 | 6.0 days | 6.3 days | 6.0 days |  |  |  |  |  |  | 
OC1CCC2(CC1)OOC1(O2)C2CC3CC(C2)CC1C3 (stereo not drawn) [OZ32] |  |  | 79 | 91 | 93 | 6.7 days | 8.7 days | 7.0 days |  |  |  |  |  | 0.25 (≈ 0.892 nM) | 0.51 (≈ 1.82 nM)
O=C(O)c1ccc(OC[C@H]2CC[C@]3(CC2)OOC2(O3)C3CC4CC(C3)CC2C4)cc1 (stereo partly drawn) [OZ176] | 25 ng/mL (≈ 60.3 nM) | 35 ng/mL (≈ 84.4 nM) | 11 | 24 | 18 | 7.0 days | 7.0 days | 7.7 days |  |  |  |  |  |  | 
O=C1c2ccccc2C(=O)N1CC1(c2ccccc2)CCC2(CC1)OOC1(O2)C2CC3CC(C2)CC1C3 (stereo not drawn) [OZ97] | 2.2 ng/mL (≈ 4.4 nM) | 1.8 ng/mL (≈ 3.6 nM) | 59 | 66 | 2 | 6.7 days | 7.0 days | 5.3 days |  |  |  |  |  |  | 
